Laboratory results reported in patent publication US20110021429A1, “Renoprotection by growth hormone-releasing hormone and agonists” (priority 2007, published 2011).
No end group written: not given here.

Legend:
[1] = 14-day sc administration, cited from earlier work
CIC-K1 mRNA = CIC-K1 mRNA levels by real-time RT-PCR in purified thin limb cells after in vivo sc GHRH; set-up: species or system rat; conditions: 1 mg/kg BW/day sc, 2 days
GHRH-R = target: T1, GHRH-R (Rattus norvegicus, UniProt Q02644); test: GHRH-induced intracellular cAMP production in freshly dispersed semi-purified thin limb cells (EIA); format: cell-based
T1 construct: endogenous in cells; host or cells: freshly dispersed semi-purified thin limb cells of Henle's loop from the renal medulla of 2-month-old male Sprague Dawley rats
T1 sequence (Q02644 53-423 isoform Q02644-2): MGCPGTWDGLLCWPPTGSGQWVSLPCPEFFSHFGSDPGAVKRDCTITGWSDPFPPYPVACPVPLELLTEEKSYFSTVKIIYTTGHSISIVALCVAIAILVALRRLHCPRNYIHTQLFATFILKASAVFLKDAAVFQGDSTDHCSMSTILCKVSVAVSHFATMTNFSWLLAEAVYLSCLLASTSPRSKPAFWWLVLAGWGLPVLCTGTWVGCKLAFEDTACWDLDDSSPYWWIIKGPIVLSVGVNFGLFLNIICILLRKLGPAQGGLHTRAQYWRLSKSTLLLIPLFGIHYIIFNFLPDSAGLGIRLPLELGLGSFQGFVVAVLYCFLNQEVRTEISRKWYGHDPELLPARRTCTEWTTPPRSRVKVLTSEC
Description: Cell dispersion of minced medullas to obtain semi-purified thin limb cells was performed as previously described.^33 These cells were used immediately for in vitro determination of basal and rGHRH(1-29)NH2-induced cAMP levels or purified by differential centrifugation for immunocytochemistry, using a continuous gradient of Nycodenz. The gradient was prepared as described by Grupp et al.^55 and thin limb cells were recovered in fraction I of the gradient after centrifugation at 1500 g (16° C., 45 min) and washed twice in HEPES-Ringer buffer (430 g, 16° C., 10 min). Cell viability, assessed by the Trypan Blue exclusion method, was around 95%. When purified thin limb cells were cultured, isolation and purification steps were performed under sterile conditions and media containing antibiotics.
Sensitivity to GHRH was assessed in freshly semi-purified thin limb cells^33 from rats fed a 8%-NaCl diet for 2, 7 or 14 days or the control diet. […] Supernatants were used to quantify immunoreactive cAMP levels (non-acetylated method). Pellets were kept frozen for determination of protein content.^59 Optical densities were measured at 450 nm, using a microplate reader (Bio-Rad, model 3550). […]

[2] = system: anterior pituitary GHRH-R mRNA; test: Anterior pituitary GHRH-R mRNA levels after in vivo GHRH; set-up: species or system rat; conditions: 2-day in vivo GHRH
Description: (§1) Two-month-old male Sprague Dawley rats (Charles River Canada, St-Constant, QC) were kept in temperature- (22° C.), humidity- (65%) and lighting- (12h cycles; lights on at 0700 h) controlled rooms and had free access to standard rat chow (2018 Tecklad global 18% protein rodent diet, containing 0.23% Na^+ and 0.4% Cl^−; Harlan Tecklad, Madison, Wis.) and tap water. Rats were acclimatized ≈3 days before going on a high-NaCl diet or water deprivation. Rats fed the custom-made high-NaCl diet for 2, 7 or 14 (8% NaCl; Harlan Tecklad) were compared to rats fed the custom-made control diet (0.3% NaCl; Harlan Tecklad). They had free access to water. […] Rats used in the first series of experiments, to quantify GHRH-R mRNA levels following a 8%-NaCl diet or a water deprivation, were housed individually in metabolic cages for the entire duration of intervention. Body weight (BW), food and water intakes, and urine volume were recorded daily, and Na^+ levels were analyzed on the last 24h urine sample before sacrifice. Rats used in the 8%-NaCl diet/GHRH study were housed individually in plastic cages and BW and food intake were recorded daily. […]
Total RNA was extracted as above. […] Membranes were subsequently washed, exposed to films, stripped and rehybridized with GAPDH 28S probes.^33 Quantification of each GHRH-R mRNA transcript (2.5 and 4 kb), GAPDH mRNA and 28S rRNA levels was performed by densitometry. […]

GHRH-R mRNA [3] = test: GHRH-R mRNA levels by real-time RT-PCR in purified thin limb cells after in vivo sc GHRH; set-up: species or system rat; conditions: 2 days; for GHRH-R mRNA levels: 1 mg/kg BW/day sc
Description: Two-month-old male Sprague Dawley rats (Charles River Canada, St-Constant, QC) were kept in temperature- (22° C.), humidity- (65%) and lighting- (12h cycles; lights on at 0700 h) controlled rooms and had free access to standard rat chow (2018 Tecklad global 18% protein rodent diet, containing 0.23% Na^+ and 0.4% Cl^−; Harlan Tecklad, Madison, Wis.) and tap water. Rats were acclimatized ≈3 days before going on a high-NaCl diet or water deprivation. Rats fed the custom-made high-NaCl diet for 2, 7 or 14 (8% NaCl; Harlan Tecklad) were compared to rats fed the custom-made control diet (0.3% NaCl; Harlan Tecklad). They had free access to water. Rats deprived of water for 3 or 5 days had free access to 2018 Tecklad rat chow. Rats used in the first series of experiments, to quantify GHRH-R mRNA levels following a 8%-NaCl diet or a water deprivation, were housed individually in metabolic cages for the entire duration of intervention. Body weight (BW), food and water intakes, and urine volume were recorded daily, and Na^+ levels were analyzed on the last 24h urine sample before sacrifice. Rats used in the 8%-NaCl diet/GHRH study were housed individually in plastic cages and BW and food intake were recorded daily. Rats were sacrificed in a block-design fashion between 0900-1130 h, by rapid decapitation. Pituitaries, kidneys and livers were excised immediately and anterior pituitaries and renal medullas dissected out. Tissues were snap-frozen in liquid nitrogen and stored at −80° C. until RNA extraction. […]
Total RNA from purified thin limb cells was extracted with TRIzol. […] Reverse transcription of 2 μg total RNA was performed using the SuperScript™ II RT kit (Invitrogen) and random hexamer primers, according to the manufacturer's protocol, including RNAse H treatement. mRNA levels of rat GHRH-R and rat GAPDH (internal control) were determined in separate tubes, by real-time PCR, using a 1/150 (GHRH-R) and 1/300 (GAPDH) dilution of the RT product and the reagents from the Quantitect™ SYBR® Green PCR kit (Qiagen, Mississauga, ON, CA), according to the manufacturer's recommendation. […]

[4] = system: thin limbs of Henle's loop cells; test: In vivo BrdU immunolabeling (DNA repair/synthesis) in purified thin limb cells; set-up: species or system rat; conditions: 1 mg/kg BW sc/day, 2 days, 8%-NaCl chow
Description: as §1
BrdU immunolabeling (Roche Diagnostics, Laval, QC, CA) was used to quantify DNA repair/synthesis in purified thin limb cells from rat submitted 2 days to a 8%- or 0.3%-NaCl diet and injected with GHRH or saline. […]

GHRH-R mRNA [5] = test: Renal medulla GHRH-R mRNA levels after in vivo GHRH in high-NaCl fed rats; set-up: species or system rat; conditions: high-NaCl fed rats injected with GHRH, 1 mg/kg BW sc/day, 2 days
Description: as §1
Total RNA from medullas and purified descending and ascending thin limb cells was extracted with TRIzol (Invitrogen Canada, Burlington, ON). […] Tissue GHRH-R and GAPDH mRNA and cRNA external standard levels were quantified by densitometry. […]

[6] = Body weight and food intake of rats on 8%-NaCl diet injected with GHRH; format: in vivo, rat; conditions: 2-day 8%-NaCl diet, injected with GHRH or saline
Description: (§2) Two-month-old male Sprague Dawley rats (Charles River Canada, St-Constant, QC) were kept in temperature- (22° C.), humidity- (65%) and lighting- (12h cycles; lights on at 0700 h) controlled rooms and had free access to standard rat chow (2018 Tecklad global 18% protein rodent diet, containing 0.23% Na^+ and 0.4% Cl^−; Harlan Tecklad, Madison, Wis.) and tap water. Rats were acclimatized ≈3 days before going on a high-NaCl diet or water deprivation. Rats fed the custom-made high-NaCl diet for 2, 7 or 14 (8% NaCl; Harlan Tecklad) were compared to rats fed the custom-made control diet (0.3% NaCl; Harlan Tecklad). They had free access to water. Rats deprived of water for 3 or 5 days had free access to 2018 Tecklad rat chow. Rats used in the first series of experiments, to quantify GHRH-R mRNA levels following a 8%-NaCl diet or a water deprivation, were housed individually in metabolic cages for the entire duration of intervention. Body weight (BW), food and water intakes, and urine volume were recorded daily, and Na^+ levels were analyzed on the last 24h urine sample before sacrifice. Rats used in the 8%-NaCl diet/GHRH study were housed individually in plastic cages and BW and food intake were recorded daily. Rats were sacrificed in a block-design fashion between 0900-1130 h, by rapid decapitation. […]

[7] = Serum total IGF-1 levels after in vivo GHRH; set-up: species or system rat; conditions: high-NaCl fed rats injected with GHRH, 1 mg/kg BW sc/day, 2 days
Description: as §2

rGHRH(1-29)NH2 (HADAIFTSSYRRILGQLYARKLLHEIMNR-NH2) [rat growth hormone-releasing hormone fragment 1-29 amide, synthesized in the applicant's laboratory]
IGF-I serum levels significantly decreased ([1]; 0.5 mg/kg BW/day): not
IGF-I serum levels ([1]; 1 mg/kg BW/day): significantly decreased
CIC-K1 mRNA levels (CIC-K1 mRNA; 5 other rats): without significantly altering
CICK-1 mRNA levels (CIC-K1 mRNA; subgroup of 3 rats): significantly increased
decrease of GHRH-induced cAMP production (GHRH-R; 1 nM and 100 nM, cells from rats fed 2 days 8%-NaCl chow vs control diet): 1.5 fold
loss of sensitivity to GHRH (cAMP production) (GHRH-R; cells from rats fed the high-salt diet for 7 or 14 days): reverted
anterior pituitary GHRH-R mRNA levels [2]: No significant regulatory effect
regulation of renal GHRH-R mRNA levels in thin limb cells (GHRH-R mRNA [3]; 0.5 mg/kg BW/day sc, healthy rats, P<0.01): up-regulate
GHRH-R mRNA levels (GHRH-R mRNA [3]; 5 other rats): decreased
GHRH-R mRNA levels (GHRH-R mRNA [3]; subgroup of 3 rats): significantly increased
increase in intensity of mitochondrial BrdU immunofluorescence [4]: ≈ 7 times
increase in the number of ascending thin limb cell nuclei and mitochondria immunolabeled to BrdU ([4]; vs control groups): 5 times
GHRH-R mRNA levels in the renal medulla (GHRH-R mRNA [5]): tended to increase
body weight (BW) [6]: No change
food intake [6]: No change
serum total insulin-like growth factor-1 (IGF-1) levels [7]: not modified
